Laboratory results published in US20190352276A1, “INHIBITORS OF BRUTON'S TYROSINE KINASE” (Joint Stock Company "Biocad", priority 2016, published 2019).

How the values were obtained:
[1] = Stability in human blood plasma; conditions: 10 μM in pooled human blood plasma, incubated 4 hours at 37° C.
[2] = Chemical stability in artificial gastric fluid (SGF without enzymes); conditions: 10 μM in SGF without enzymes, pH=1.4, 37° C.
[3] = tested on: Mino (mantle cell lymphoma); experiment: Antiproliferative activity, Mino cells (Alamar Blue); assay type: cell-based; conditions: Homo sapiens, Table 10, 72 h, average of several tests
Experimental: (§1) Antiproliferative activity of BTK inhibitors was measured in cell-based bioassay on B-cells cultures: Mino (mantle cell lymphoma, ATCC® CRL-3000™), Z-138 (mantle cell lymphoma, ATCC® CRL-3001™) and DOHH2 (follicular lymphoma, Creative Bioarray CSC-C0219) using cell viability reagent Alamar Blue (Invitrogen, #DAL 1100). Cells were cultured in 10% FB S-supplemented (HyClone, #SH3008803/Gibco, #16140-071) RPMI-1640 (PanEco, #S330p) for at least 1 passage after thawing, washed with PBS and passaged in 96-well culture plates (Corning, #3599) with growth medium with 10% FBS (HyClone, #SH3008803/Gibco, #16140-071) and antibiotic (50 μg/ml of gentamicin (Biolot, #1.3.16))≈3*10^4 cells in 50 μl of medium per well.
(§2) The compounds were dissolved in DMSO and diluted with the assay medium to final concentrations ranging from […]. 150 μl of each diluted compound were then added to each well (final concentration of DMSO was less than 1%) and incubated at 37° C. in an incubator under 5% of CO2 for 72 h. After incubation, 20 μl of Alamar Blue reagent (Invitrogen, #DAL1100) were added to each well. The plates were shaked on an orbital shaker (Biosan, Latvia) and then incubated for 14-16 hours at 37° C. in the incubator.
(§3) The number of living cells were estimated, measuring the fluorescence signal at the excitation wavelength (REx) of 540 nm and the emission wavelength (λEm) of 590 nm on a microplate reader (Tecan Infinite M200Pro, Switzerland).
(§4) For each compound, IC50 was calculated using Magellan 7.2 software (Tecan, Switzerland) approximating experimental points by four-parameter logistic model with the optimization by Levenberg-Marquardt.

[4] = tested on: Z-138 (mantle cell lymphoma); experiment: Antiproliferative activity, Z-138 cells (Alamar Blue); assay type: cell-based; conditions: Homo sapiens, Table 10, 72 h, average of several tests
Experimental: as §1, §2, §3, §4

[5] = General cytotoxicity on HepG2 cells (CC50; therapeutic index CC50 HepG2/IC50 Mino); assay type: cell-based; conditions: human, HepG2 cells (hepatocellular carcinoma); Table 10; 72 hours, Alamar Blue; average of several tests
Experimental: (§5) The CC50 values were determined in the test for General cytotoxicity on HepG2 cells (hepatocellular carcinoma, ATCC® HB-8065™). 2*10^4 cells (in 50 μl) per well were seeded in 96-well plates (Corning, #3599) in DMEM medium (PanEco, #S420p), after 24 h of incubation 150 μl of candidate compounds were added to each well in the range of final concentrations from 200 μM to 4 μM and the plate was incubated in a total volume of 200 μl for 72 hours. Viability of the cells was assessed using Alamar Blue dye (Invitrogen, #DAL 1100). CC50 was determined similarly (table 10).
(§6) The relationship between toxic (CC50) and a therapeutic (IC50) effects of the dose is the therapeutic index, which can be expressed as the ratio between CC50 (HepG2) (general cytotoxicity of the candidate) and IC50 (Mino) (antiproliferative activity on the target cells): […]

[6] = tested on: HepG2 cells (hepatocellular carcinoma); experiment: as above; assay type: cell-based; conditions: Table 10; therapeutic index
Experimental: as §5, §6

Compound	Amount of substance in the sample, % (stability in human blood plasma) [1] [%]	Amount of substance in the sample in % (chemical stability) [2] [%]	other results
C=CC(=O)N1CCC[C@@H](n2nc(-c3ccc(Oc4ccncc4)cc3)c3cncc(Cl)c32)C1 [BCD-BTK -125, (R)-1-(1-acryloylpiperidin-3-yl)-7-chloro-3-(4-(pyridin-4-yloxy)phenyl)-1H-pyrazolo[4,3-c]pyridine]	97.8	–	–
C=CC(=O)N1CCC[C@@H](n2nc(-c3ccc(Oc4ccncc4)cc3)c3c(N)ncc(C#N)c32)C1 [BCD-BTK -134, (R)-1-(1-acryloylpiperidin-3-yl)-4-amino-3-(4-(pyridin-4-yloxy)phenyl)-1H-pyrazolo[4,3-c]pyridin-7-carbonitrile]	89.7	–	–
C=CC(=O)N1CCC[C@@H](n2nc(-c3ccc(Oc4ccncc4)cc3)c3c(N)ncc(Cl)c32)C1 [BCD-BTK -139, (R)-1-(1-acryloylpiperidin-3-yl)-7-chloro-3-(4-(pyridin-4-yloxy)phenyl)-1H-pyrazolo[4,3-c]pyridin-4-amine]	87.1	–	–
C=CC(=O)N1CCC[C@@H](n2nc(-c3ccc(C(=O)Nc4ccc(F)cn4)cc3)c3c(N)ncc(Cl)c32)C1 [BCD-BTK -237, 4-{4-amino-7-chloro-1-[(3R)-1-(prop-2-enoyl)piperidin-3-yl]-1H-pyrazolo[4,3-c]pyridin-3-yl}-N-(5-fluoropyridin-2-yl)benzamide]	95.5	100	–
C=CC(=O)N1CCC[C@@H](n2nc(-c3ccc(C(=O)Nc4cc(C(F)(F)CCC)ccn4)cc3)c3cncc(F)c32)C1 [BCD-BTK -247, (R)-4-(1-(1-acryloylpiperidin-3-yl)-7-fluoro-1H-pyrazolo[4,3-c]pyridin-3-yl)-N-(4-(1,1-difluorobutyl)pyridin-2-yl)benzamide]	87.3	100	–
C=CC(=O)N1CCC[C@@H](n2nc(-c3ccc(C(=O)Nc4cccc(F)n4)cc3)c3c(N)ncc(Cl)c32)C1 [BCD-BTK -250, (R)-4-(1-(1-acryloylpiperidin-3-yl)-4-amino-7-chloro-1H-pyrazolo[4,3-c]pyridin-3-yl)-N-(6-fluoropyridin-2-yl)benzamide]	84.5	–	–
C=CC(=O)N1CCC[C@@H](n2nc(-c3ccc(C(=O)Nc4cc(C(F)(F)F)ccn4)cc3)c3c(N)ncc(Cl)c32)C1 [BCD-BTK -251, (R)-4-(1-(1-acryloylpiperidin-3-yl)-4-amino-7-chloro-1H-pyrazolo[4,3-c]pyridin-3-yl)-N-(4-(trifluoromethyl)pyridin-2-yl)benzamide]	89.2	–	–
C=CC(=O)N1CCC[C@@H](n2nc(-c3ccc(C(=O)Nc4cc(C(F)(F)CCC)ccn4)cc3)c3cncc(Cl)c32)C1 [BCD-BTK -252, (R)-4-(1-(1-acryloylpiperidin-3-yl)-7-chloro-1H-pyrazolo[4,3-c]pyridin-3-yl)-N-(4-(1,1-difluorobutyl)pyridin-2-yl)benzamide]	85.2	–	–
C=CC(=O)N1CCC[C@@H](n2nc(-c3ccc(C(=O)Nc4cc(C(F)(F)CCC)ccn4)cc3)c3c(N)ncc(Cl)c32)C1 [BCD-BTK -254, (R)-4-(1-(1-acryloylpiperidin-3-yl)-4-amino-7-chloro-1H-pyrazolo[4,3-c]pyridin-3-yl)-N-(4-(1,1-difluorobutyl)pyridin-2-yl)benzamide]	93.0	–	–
C=CC(=O)N1CCC[C@@H](n2nc(-c3cnc(C(=O)Nc4cc(C(F)(F)CCC)ccn4)nc3)c3cncc(Cl)c32)C1 [BCD-BTK -292, (R)-5-(1-(1-acryloylpiperidin-3-yl)-7-chloro-1H-pyrazolo[4,3-c]pyridin-3-yl)-N-(4-(1,1-difluorobutyl)pyridin-2-yl)pyrimidine-2-carboxamide]	93.3	–	–
C=CC(=O)N1CCC[C@@H](n2nc(-c3cnc(C(=O)Nc4cc(C(F)(F)CC)ccn4)nc3)c3cncc(Cl)c32)C1 [BCD-BTK -293, (R)-5-(1-(1-acryloylpiperidin-3-yl)-7-chloro-1H-pyrazolo[4,3-c]pyridin-3-yl)-N-(4-(1,1-difluoropropyl)pyridin-2-yl)pyrimidine-2-carboxamide]	85.7	–	–
CC#CC(=O)N1CCC[C@@H](n2nc(-c3ccc(C(=O)Nc4ccccn4)cc3)c3c(N)ncc(Cl)c32)C1 [BCD-BTK -295, (R)-4-(4-amino-1-(1-(but-2-ynoyl)piperidin-3-yl)-7-chloro-1H-pyrazolo[4,3-c]pyridin-3-yl)-N-(pyridin-2-yl)benzamide]	100.0	–	–
C=CC(=O)N1CCC[C@@H](n2nc(-c3cnc(-n4ccc(=O)c(C#N)c4)nc3)c3cncc(Cl)c32)C1 [BCD-BTK-206, (R)-1-(5-(1-(1-acryloylpiperidin-3-yl)-7-chloro-1H-pyrazolo[4,3-c]pyridin-3-yl)pyrimidin-2-yl)-4-oxo-1,4-dihydropyridine-3-carbonitrile]	87.6	–	–
C=CC(=O)N1CCC[C@@H](n2nc(-c3cnc(-n4ccc(=O)c(C(N)=O)c4)nc3)c3cncc(Cl)c32)C1 [BCD-BTK-207, (R)-1-(5-(1-(1-acryloylpiperidin-3-yl)-7-chloro-1H-pyrazolo[4,3-c]pyridin-3-yl)pyrimidin-2-yl)-4-oxo-1,4-dihydropyridine-3-carboxamide]	82.6	–	–
C=CC(=O)N1CCC[C@@H](n2nc(-c3ccc(-n4ccc(=O)c(C#N)c4)cc3)c3cncc(Cl)c32)C1 [BCD-BTK-208, (R)-1-(4-(1-(1-acryloylpiperidin-3-yl)-7-chloro-1H-pyrazolo[4,3-c]pyridin-3-yl)phenyl)-4-oxo-1,4-dihydropyridine-3-carbonitrile]	91.4	–	IC50 [3]: 21.5 µM; IC50 [4]: 32.2 µM; CC50 at 72 h [5]: 112 µM; CC50 (HepG2)/IC50 (Mino) [6]: 5.21
CC#CC(=O)N1CC(Cn2nc(-c3ccc(C(=O)Nc4ccccn4)cc3)c3cncc(Cl)c32)C1 [BCD-BTK-267, 4-(1-((1-(but-2-ynoyl)azetidin-3-yl)methyl)-7-chloro-1H-pyrazolo[4,3-c]pyridin-3-yl)-N-(pyridin-2-yl)benzamide]	100.0	100	–
CC#CC(=O)N1CCC[C@@H]1Cn1nc(-c2ccc(C(=O)Nc3ccccn3)cc2)c2cncc(Cl)c21 [BCD-BTK-269, (R)-4-(1-((1-(but-2-ynoyl)pyrrolidin-2-yl)methyl)-7-chloro-1H-pyrazolo[4,3-c]pyridin-3-yl)-N-(pyridin-2-yl)benzamide]	95.4	100	–
CC#CC(=O)N1CCC[C@@H](Cn2nc(-c3ccc(C(=O)Nc4ccccn4)cc3)c3cncc(Cl)c32)C1 [BCD-BTK-278, (R)-4-(1-((1-(but-2-ynoyl)piperidin-3-yl)methyl)-7-chloro-1H-pyrazolo[4,3-c]pyridin-3-yl)-N-(pyridin-2-yl)benzamide]	96.2	100	–
CC#CC(=O)N1CCC[C@H](Cn2nc(-c3ccc(C(=O)Nc4ccccn4)cc3)c3cncc(Cl)c32)C1 [BCD-BTK-283, (S)-4-(1-((1-(but-2-ynoyl)piperidin-3-yl)methyl)-7-chloro-1H-pyrazolo[4,3-c]pyridin-3-yl)-N-(pyridin-2-yl)benzamide]	97.4	100	–
